Measured values as given in PubChem BioAssay AID2060500 (Molecular Pharmacology Branch, DTP, NCI, 2025).

Tested on: 596521-263-R-J1-PDC complex spheroids, viability % of control
Test: Anticancer human tumor 596521-263-R-J1-PDC patient-derived soft tissue sarcoma cell line growth inhibition [GQUAD]
Conditions: for IC50: curve of first compound; for viability, T/C: stronger effect = lower value
Procedure, shortened: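 Viability of tumor cells grown as complex spheroids with endothelial and stromal cells, exposed to drug combinations. Top concentration at or near clinical Cmax (else 10 microM), diluted in half-log increments.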

[1] = second compound 0.0316 µM, first compound 0.000999 µM
[2] = second compound 0.0316 µM, first compound 0.00316 µM
[3] = second compound 0.0316 µM, first compound 0.00999 µM
[4] = second compound 0.0316 µM, first compound 0.0316 µM
[5] = second compound 0.0316 µM, first compound 0.0999 µM
[6] = second compound 0.0316 µM, first compound 0.316 µM
[7] = second compound 0.1 µM, first compound 0.000999 µM
[8] = second compound 0.1 µM, first compound 0.00316 µM
[9] = second compound 0.1 µM, first compound 0.00999 µM
[10] = second compound 0.1 µM, first compound 0.0316 µM
[11] = second compound 0.1 µM, first compound 0.0999 µM
[12] = second compound 0.1 µM, first compound 0.316 µM
[13] = second compound 0.316 µM, first compound 0.000999 µM
[14] = second compound 0.316 µM, first compound 0.00316 µM
[15] = second compound 0.316 µM, first compound 0.00999 µM
[16] = second compound 0.316 µM, first compound 0.0316 µM
[17] = second compound 0.316 µM, first compound 0.0999 µM
[18] = second compound 0.316 µM, first compound 0.316 µM
[19] = second compound 1 µM, first compound 0.000999 µM
[20] = second compound 1 µM, first compound 0.00316 µM
[21] = second compound 1 µM, first compound 0.00999 µM
[22] = second compound 1 µM, first compound 0.0316 µM
[23] = second compound 1 µM, first compound 0.0999 µM
[24] = second compound 1 µM, first compound 0.316 µM
[25] = second compound 3.16 µM, first compound 0.000999 µM
[26] = second compound 3.16 µM, first compound 0.00316 µM
[27] = second compound 3.16 µM, first compound 0.00999 µM
[28] = second compound 3.16 µM, first compound 0.0316 µM
[29] = second compound 3.16 µM, first compound 0.0999 µM
[30] = second compound 3.16 µM, first compound 0.316 µM
[31] = second compound 10 µM, first compound 0.000999 µM
[32] = second compound 10 µM, first compound 0.00316 µM
[33] = second compound 10 µM, first compound 0.00999 µM
[34] = second compound 10 µM, first compound 0.0316 µM
[35] = second compound 10 µM, first compound 0.0999 µM
[36] = second compound 10 µM, first compound 0.316 µM
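Further: spheroids exposed to drugs for 7 days before viability reading.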
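Wherever viability, T/C is given: 100% = DMSO vehicle control viability.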

Cc1[nH]c2ccccc2c1CCNCc1ccc(/C=C/C(=O)NO)cc1 + Cc1cnc(CNC(=O)c2c(=O)c3ccc(N4CCCN(C)CC4)nc3n3c2sc2ccccc23)cn1
IC50 (second compound 0.0316 µM): 44.4 nM | IC50 (second compound 0.1 µM): 57.5 nM | IC50 (second compound 0.316 µM): 49.3 nM | IC50 (second compound 1 µM): 39.4 nM | IC50 (second compound 3.16 µM): 18.5 nM | IC50 (second compound 10 µM): < 0.999 nM | viability, T/C [1]: 103% | viability, T/C [2]: 88.9% | viability, T/C [3]: 83.1% | viability, T/C [4]: 58.4% | viability, T/C [5]: 29.2% | viability, T/C [6]: 2% | viability, T/C [7]: 99.9% | viability, T/C [8]: 81.8% | viability, T/C [9]: 79.7% | viability, T/C [10]: 61.8% | viability, T/C [11]: 40.6% | viability, T/C [12]: 2.65% | viability, T/C [13]: 83.2% | viability, T/C [14]: 73.9% | viability, T/C [15]: 67.8% | viability, T/C [16]: 63.3% | viability, T/C [17]: 34.3% | viability, T/C [18]: 2.74% | viability, T/C [19]: 65.2% | viability, T/C [20]: 67.5% | viability, T/C [21]: 67.8% | viability, T/C [22]: 48% | viability, T/C [23]: 36.8% | viability, T/C [24]: 0.29% | viability, T/C [25]: 49.9% | viability, T/C [26]: 54.4% | viability, T/C [27]: 54% | viability, T/C [28]: 47.4% | viability, T/C [29]: 30.5% | viability, T/C [30]: 0.21% | viability, T/C [31]: 41.9% | viability, T/C [32]: 19.3% | viability, T/C [33]: 43.1% | viability, T/C [34]: 37.8% | viability, T/C [35]: 0.34% | viability, T/C [36]: 0.24%

Cc1[nH]c2ccccc2c1CCNCc1ccc(/C=C/C(=O)NO)cc1 + Cc1[nH]c2ccc(F)cc2c1-c1nc2c3cccnc3c3ncccc3c2[nH]1
IC50 (second compound 0.0316 µM): > 316 nM | IC50 (second compound 0.1 µM): > 316 nM | IC50 (second compound 0.316 µM): > 316 nM | IC50 (second compound 1 µM): > 316 nM | IC50 (second compound 3.16 µM): > 316 nM | IC50 (second compound 10 µM): > 316 nM | viability, T/C [1]: 108% | viability, T/C [2]: 97% | viability, T/C [3]: 100% | viability, T/C [4]: 82% | viability, T/C [5]: 96.4% | viability, T/C [6]: 90.1% | viability, T/C [7]: 99.3% | viability, T/C [8]: 90.6% | viability, T/C [9]: 94.2% | viability, T/C [10]: 91.3% | viability, T/C [11]: 86.9% | viability, T/C [12]: 92.7% | viability, T/C [13]: 102% | viability, T/C [14]: 94.7% | viability, T/C [15]: 93.2% | viability, T/C [16]: 94.3% | viability, T/C [17]: 87% | viability, T/C [18]: 94.9% | viability, T/C [19]: 95.9% | viability, T/C [20]: 99.6% | viability, T/C [21]: 91.4% | viability, T/C [22]: 83.9% | viability, T/C [23]: 90.1% | viability, T/C [24]: 94.2% | viability, T/C [25]: 82.6% | viability, T/C [26]: 82.2% | viability, T/C [27]: 91% | viability, T/C [28]: 90.1% | viability, T/C [29]: 84.1% | viability, T/C [30]: 88.8% | viability, T/C [31]: 81.2% | viability, T/C [32]: 67.2% | viability, T/C [33]: 85% | viability, T/C [34]: 75.5% | viability, T/C [35]: 76.4% | viability, T/C [36]: 72%

CCc1c2c(nc3ccc(O)cc13)-c1cc3c(c(=O)n1C2)COC(=O)[C@]3(O)CC + Cc1cnc(CNC(=O)c2c(=O)c3ccc(N4CCCN(C)CC4)nc3n3c2sc2ccccc23)cn1
IC50 (second compound 0.0316 µM): 8.62 nM | IC50 (second compound 0.1 µM): 8.15 nM | IC50 (second compound 0.316 µM): 9.24 nM | IC50 (second compound 1 µM): 13.2 nM | IC50 (second compound 3.16 µM): 6.43 nM | IC50 (second compound 10 µM): < 0.999 nM | viability, T/C [1]: 57.6% | viability, T/C [2]: 59.2% | viability, T/C [3]: 44.3% | viability, T/C [4]: 40% | viability, T/C [5]: 17.4% | viability, T/C [6]: 7.92% | viability, T/C [7]: 58.6% | viability, T/C [8]: 56.8% | viability, T/C [9]: 49.3% | viability, T/C [10]: 34.1% | viability, T/C [11]: 21.3% | viability, T/C [12]: 8.98% | viability, T/C [13]: 71.6% | viability, T/C [14]: 55.4% | viability, T/C [15]: 49.9% | viability, T/C [16]: 40.5% | viability, T/C [17]: 21.2% | viability, T/C [18]: 7.27% | viability, T/C [19]: 63.8% | viability, T/C [20]: 61.7% | viability, T/C [21]: 52.6% | viability, T/C [22]: 40.1% | viability, T/C [23]: 24.1% | viability, T/C [24]: 6.45% | viability, T/C [25]: 55.8% | viability, T/C [26]: 55% | viability, T/C [27]: 47.6% | viability, T/C [28]: 37.3% | viability, T/C [29]: 23.2% | viability, T/C [30]: 0.26% | viability, T/C [31]: 47.2% | viability, T/C [32]: 37.1% | viability, T/C [33]: 39.6% | viability, T/C [34]: 32.5% | viability, T/C [35]: 4.57% | viability, T/C [36]: 0.24%
